Assay results as given in patent US5491220A, “Surface loop structural analogues of fibroblast growth factors” (Yeda Research and Development Co., Ltd., priority 1994, dated 1996).

How the values were obtained:
[1] = Affinity for immobilized heparin (NaCl elution from heparin column); format: binding; conditions: TSK-heparin column
Protocol: Cells from 1 liter cultures are harvested by centrifugation, resuspended in 30 ml of 50 mM Tris-HCl, pH 7.5 containing 0.1 mM EDTA and 0.6M NaCl, and disrupted by treatment with lysozyme (10 μg/ml) for 20 min at 4° C. followed by sonication (6×30 sec pulses). The lysates are clarified by centrifugation (10,000×g; 20 min) and the supernatant solutions incubated with 5 ml of hydrated heparin Sepharose (Pharmacia/LKB) at 4° C. for 1 hour with constant rotation. The resin is isolated by filtration on 0.8 μm filter apparatus (Nalgene), washed extensively with 10 mM Tris-HCl pH 7.4 containing 0.6M NaCl and bound protein eluted with Tris buffer containing 3M NaCl (25 ml). The 3M NaCl eluent is diluted 6-fold with Tris buffer and loaded onto a TSK heparin 5PW column (0.21×15 cm; The Nest Group, MA) and the column developed using a linear NaCl gradient (0.6 to 2M) in 90 min at a flow rate of […].
NaCl elution from heparin-Sepharose® is about 0.7M NaCl, compared with 1.4M NaCl for the wild-type protein. The molarity of NaCl required to elute the LK mutant is similar to that required to elute FGF-7.

[2] = test system: FGF receptor on BHK cells; assay: Competition for 125I-FGF-2 binding to baby hamster kidney (BHK) cells; conditions: 50 pM 125I-FGF-2; compared with FGF-2
Protocol: FGF-2LI and FGF-2LA are tested for their capacity to compete for the binding of ^125 I-FGF-2 (Amersham Corp.) to baby hamster kidney (BHK) cells, which express high numbers of FGF receptor. The assay employed is described by Moscatelli (J. Cell. Physiol. 131: 123-130 (1987)). Briefly stated, BHK cells plated on 24-well plates are incubated with 50 pM ^125 I-FGF-2 with serial dilutions of unlabelled FGF-2, FGF-2LI or FGF-2LA loop mutants at room temperature for 1 hour or at 4° C. for 2 hours. The cells are then incubated at 4° C. for 30 minutes, washed twice with phosphate-buffered saline and treated with 20 mM HEPES (N-2-hydroxyethyl-piperazine-N'-2-ethanesulfonic acid), pH 7.5, containing 2M NaCl to remove ^125 I-FGF-2 bound to low affinity heparin sulfate binding sites. Receptor bound ^125 I-FGF-2 is recovered by treatment of the cells with 0.5% Triton X-100 in 0.1M sodium phosphate, pH 8, and counted in a γ-counter. Assays are conducted in duplicate.

[3] = test system: bovine vascular endothelial cells derived from adult aortic arch; assay: Mitogenic activity, endothelial cell proliferation assay; format: cell-based; conditions: 5 days in culture
Protocol: The mitogenic activity of FGF-2, FGF-2LI and FGF-2LA are determined using bovine vascular endothelial cells derived from adult aortic arch as previously described (Gospardarowicz, D., et al., Proc. Nat. Acad. Sci. 81: 6963-6967 (1984)). Briefly, cells are seeded at an initial density of 0.8×10^4 cells per 24-well plate in 0.5 ml Dulbecco's modified Eagle's medium (DMEM) containing 10% calf serum (Hyclone, Logan, Utah) supplemented with penicillin (100 units/ml), streptomycin (100 ug/ml) and L-glutamine (2 mM). Two hours after plating, 20 ul aliquots of serial dilutions of FGF-2 and the mutants in DMEM are added. Inhibition of FGF-2-stimulated growth was determined at a fixed concentration of FGF-2, while that of the mutant proteins is varied. After 5 days in culture, duplicate plates are trypsinized and cell densities determined by cell counting in a Coulter counter. Determinations are conducted in duplicate.

neovascularization = assay: In vivo angiogenesis, rabbit ear chamber model
Protocol: In an in vivo model of angiogenesis, FGF-2LI is evaluated using the rabbit ear chamber system modified and improved by Howden, G. F., and Silver, I. A., (Int. Endodontic J. 13: 3-16 (1980)), observing the growth factor-induced neovascularization, or its inhibition, by modified growth factors or other reagents.
Rabbits are sedated using 50-70 mg/kg ketamine and 10 mg/kg xylozine administered intramuscularly. The ears are shaved with an electric hair clipper and cleaned with water, followed by Betadine®. To minimize the risk of infection, the rabbits are given 20,000 units/kg benzathine penicillin intramuscularly prior to insertion of the ear chambers. The chamber is inserted into an approximately 0.75 cm area which is not crossed by any major vessels. During the course of the experiments, observations or any minor handling of ear chambers of the animals is done by sedating the animal using the intramuscular administration of a combination of Butorphanol® and acepromazine at levels of 1 mg/kg each. FGF-2 or FGF-2LI bound to heparin-Sepharose® beads in a controlled-release alginate capsule is contained in one of the ear chambers and the other is used as a control containing only the heparin-Sepharose® alginate capsule vehicle. Thus, the effect of the growth factors and the controlled-release capsule alone can be observed simultaneously in the same animal. […] The animals are kept for 4 to 6 weeks and neovascularization is observed visually and recorded photographically at weekly intervals.
The criteria for evaluation of the degree of neovascularization using this procedure is set out below.

Row | Substance | NaCl concentration at elution from TSK-heparin column [1] | Capacity to compete with 125I-FGF-2 binding to FGF receptors on BHK cells [2] | Mitogenic potency, times less potent than FGF-2 [3] [times] | Angiogenesis at 400 ng/chamber (neovascularization; 400 ng/chamber) | Concentration range over which stimulatory activity is observed (neovascularization; rabbit ear chamber) | Potential to induce angiogenesis (neovascularization) (neovascularization; rabbit ear chamber, controlled-release alginate capsule) | Vessel formation in the chamber (neovascularization; rabbit ear chamber, versus control chambers) | Mitogenic potency compared with wild-type factor [3]
1 | FGF-2LI: human FGF-2 with loop residues 118-122 replaced by Ala-Gln-Phe-Pro-Asn from human interleukin-1β (SEQ ID NO 15) | about 1.5 M | similar | 5 to 10 | greatly stimulates formation of capillaries and larger vessels | 0.1-400 ng/chamber | superior to FGF-2 | stimulate large vessel formation | 
2 | FGF-2LA: human FGF-2 with loop residues 118-122 replaced by Lys-Lys-His-Ala-Glu-Lys-His from bovine FGF-1 (SEQ ID NO 16) (KKHAEKH; printed: Lys-Lys-His-Ala-Glu-Lys-His) | about 1.5 M | similar |  |  |  |  |  | as potent as the wild-type factor
